Drawing on US20250066389A1, “HETEROCYCLIC AMIDES AND METHODS OF USING THE SAME” (Rgenta Therapeutics, Inc., priority 2021, published 2025), this text covers IC50 and activation for 38 compounds.

Broadly, the IC50 is the concentration needed to halve the response being measured. A low value points to inhibition by little substance.

The assay concerns PMS1. Put plainly: Mini-Gene Reporter Assay—PMS1 (firefly luciferase mini-gene reporter transiently transfected into HEK293 cells). The format is cell-based. The note with it: Homo sapiens, mini-gene firefly luciferase reporter in HEK293 cells; for activation at 5 µM: read-out: PMS1 % Effect at 5 uM. An outline of the steps:
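HEK293 cells transiently transfected with a mini-gene construct (skipped exon with flanking introns/exons fused to firefly luciferase, pcDNA3.1) are incubated with compounds in duplicate. Exon inclusion raises luminescence; EC50 fitted by Levenberg-Marquardt; effect also scored at 5 μM.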
On the technique in general: In a reporter assay the amount or activity of a reporter protein is the signal.

Counter-ions that a name gives are not always drawn.

For `Cc1cn2cc(C(=O)Nc3ccc(N4CCN[C@@H](C)C4)nn3)c(O[C@@H]3CCOC3)cc2n1` [Compound 212, 2-methyl-N-(6-((S)-3-methylpiperazin-1-yl)pyridazin-3-yl)-7-((tetrahydrofuran-3-yl)oxy)imidazo[1,2-a]pyridine-6-carboxamide], the half-maximal inhibitory concentration (IC50) lay within 1000 to 10000 nM.

For the compound `CCOc1cn2nc(C)cc2cc1C(=O)Nc1cnc(N2CCCC(NC)C2)nc1` (stereo not drawn) [Compound 591], the activation at 5 µM is less than 50%.

For `CCOc1cc2nn(C)cc2cc1C(=O)Nc1cnc(NC[C@H]2C[C@@](F)(CN)C2)cn1` [Compound 308], the activation at 5 µM was less than 50%. Take `CCOc1cc2nc(C)cn2cc1C(=O)Nc1cnc(N2CCOC3(CCNC3)C2)cn1` (stereo not drawn) [Compound 676]: the activation at 5 µM is 50 to 75%. In the case of `CCOc1cc2nc(C)cn2cc1C(=O)Nc1cnc(NCCC2CNCC(C)O2)cn1` (stereo not drawn) [Compound 669], the activation at 5 µM is less than 50%. Still for that read-out and setting: the value for `CCOc1cc2nn(C)cc2cc1C(=O)Nc1cnc(N2CC(NC)C(C)(C)C2)nc1` (stereo not drawn) [Compound 412] was less than 50%. In turn, `Cc1cn2cc(C(=O)Nc3ccc(N4CCNC(C)(C)C4)nn3)c(OC3CCC3)cc2n1` [Compound 219, 7-cyclobutoxy-N-(6-(3,3-dimethylpiperazin-1-yl)pyridazin-3-yl)-2-methylimidazo[1,2-a]pyridine-6-carboxamide] came in with a half-maximal inhibitory concentration (IC50) of less than 1000 nM. As to `COc1cc2nc(C)cn2cc1C(=O)Nc1ccc(N2CCC3CC2CN3)cc1F` (stereo not drawn) [Compound 170, N-(4-(2,6-diazabicyclo[3.2.1]octan-2-yl)-2-fluorophenyl)-7-methoxy-2-methylimidazo[1,2-a]pyridine-6-carboxamide], the activation at 5 µM is greater than 75%.

On to `CCOc1cn2nc(C)cc2cc1C(=O)Nc1cnc(N(C)C[C@@H]2CCCN2)cn1` [Compound 526], for which the activation at 5 µM was greater than 75%. `CCOc1cc2nc(C)cn2cc1C(=O)Nc1ccc(N2CCN[C@@H](C(C)C)C2)nn1` [Compound 276] had an IC50 of less than 1000 nM. Compound `CCOc1cc2nc(C)cn2cc1C(=O)Nc1ccc(N(C)C2CCNC2)nn1` (stereo not drawn) [Compound 288] came in with a half-inhibitory concentration (IC50) of 1000 to 10000 nM. For `CCOc1cn2nc(C)cc2cc1C(=O)Nc1cnc(N2CCC(N)(c3cccc(F)c3)C2)nc1` (stereo not drawn) [Compound 568], the activation at 5 µM is less than 50%. Consider `CCNC1CCN(c2ccc(NC(=O)c3cn4cc(C)nc4cc3OC)c(F)c2)C1` (stereo not drawn) [Compound 168, N-(4-(3-(ethylamino)pyrrolidin-1-yl)-2-fluorophenyl)-7-methoxy-2-methylimidazo[1,2-a]pyridine-6-carboxamide], for which the activation at 5 µM is greater than 75%. Consider `CCOc1cc2nn(C)cc2cc1C(=O)Nc1cnc(N2CCC3(CCCN3)CC2)nc1` [Compound 442], for which the activation at 5 µM is greater than 75%. With `CCOc1cc2nn(C)cc2cc1C(=O)Nc1ccc(N2CCN[C@@H](C)C2)nn1` [Compound 208, (S)-6-ethoxy-2-methyl-N-(6-(3-methylpiperazin-1-yl)pyridazin-3-yl)-2H-indazole-5-carboxamide HCl Salt], the activation at 5 µM was greater than 75% and the IC50 is less than 1000 nM.

In the case of `CCOc1cn2nc(C)cc2cc1C(=O)Nc1cnc(N(C)CC2CCCN2)cn1` (stereo not drawn) [Compound 534], the activation at 5 µM fell in the range of 50 to 75%. `CCOc1cc2nc(C)cn2cc1C(=O)Nc1ccc(N2CCNCC3(CC3)C2)nn1` [Compound 230] yielded a concentration for half-maximal inhibition (IC50) of 1000 to 10000 nM.

As for `CCOc1cc2nc(C)cn2cc1C(=O)Nc1cnc(N2CCNC[C@H]2C)cn1` [Compound 692], the activation at 5 µM was greater than 75%. With `CCOc1cc2nn(C)cc2cc1C(=O)Nc1cnc(NC2CCNCC2F)cn1` (stereo not drawn) [Compound 355], the activation at 5 µM is greater than 75%. Consider `CCOc1cc2nn(C)cc2cc1C(=O)Nc1cnc(N2CCC(NC)C2)nc1` (stereo not drawn) [Compound 463], for which the activation at 5 µM is greater than 75%.

For the compound `CCOc1cn2nc(C)cc2cc1C(=O)Nc1cnc(N2CCC(CCN3CCNCC3)CC2)nc1` [Compound 607], the activation at 5 µM is less than 50%. For `CCOc1cc2nn(C)cc2cc1C(=O)Nc1ccc(C2=CC(C)(C)NCC2)nn1` [Compound 756, N-(6-(6,6-dimethyl-1,2,3,6-tetrahydropyridin-4-yl)pyridazin-3-yl)-6-ethoxy-2-methyl-2H-indazole-5-carboxamide formate], the activation at 5 µM is greater than 75%.

As to `CCOc1cn2nc(C)cc2cc1C(=O)Nc1cnc(N(C)C[C@@H]2CCCCN2)cn1` [Compound 519], the activation at 5 µM is greater than 75%. As for `CCOc1cn2nc(C)cc2cc1C(=O)Nc1cnc(NC2CCC3CC2CN3)cn1` (stereo not drawn) [Compound 497], the activation at 5 µM is greater than 75%. Still for that read-out and setting: the value for `CCOc1cc2nn(C)cc2cc1C(=O)Nc1cnc(NC[C@]2(F)C[C@@H](N)C2)nc1` [Compound 392] was less than 50%.

As for `CNC1CCN(c2ccc(NC(=O)c3cn4cc(C)nc4cc3OC)c(F)c2)C1` (stereo not drawn) [Compound 176, N-(2-fluoro-4-(3-(methylamino)pyrrolidin-1-yl)phenyl)-7-methoxy-2-methylimidazo[1,2-a]pyridine-6-carboxamide], the 50% inhibitory concentration (IC50) was less than 1000 nM. With `CCOc1cc2nn(C)cc2cc1C(=O)Nc1cnc(N2CCNCC2)nc1` [Compound 477], the activation at 5 µM is 50 to 75%. Take `CCOc1cc2nn(C)cc2cc1C(=O)Nc1cnc(NCc2c(C)nn3c2CNCC3)nc1` [Compound 403]: the activation at 5 µM is less than 50%.

Consider `CCOc1cc2nn(C)cc2cc1C(=O)Nc1ccc(N2CCN(C(=O)OC(C)OC(=O)C(C)C)[C@@H](C)C2)nn1` (stereo partly drawn) [Compound 747, 1-(isobutyryloxy)ethyl (2S)-4-(6-(6-ethoxy-2-methyl-2H-indazole-5-carboxamido)pyridazin-3-yl)-2-methylpiperazine-1-carboxylate], for which the activation at 5 µM was greater than 75%. `CCc1nc(C(=O)Nc2ccc(N3CCN[C@@H](C)C3)nn2)cn2cc(C)nc12` [Compound 214, 8-ethyl-2-methyl-N-{6-[(3S)-3-methylpiperazin-1-yl]pyridazin-3-yl}imidazo[1,2-a]pyrazine-6-carboxamide] showed an IC50 of less than 1000 nM. For `CCOc1cc2nn(C)cc2cc1C(=O)Nc1cnc(N(C)CC2CCNC2)nc1` (stereo not drawn) [Compound 449], the activation at 5 µM was less than 50%. Regarding `CCOc1cc2nn(C)cc2cc1C(=O)Nc1cnc(N[C@H]2C[C@H]3CC[C@@H](C2)N3)cn1` [Compound 367], the activation at 5 µM was greater than 75%.

Compound `CCOc1cc2nc(C)cn2cc1C(=O)Nc1ccc(N2CCNC(CC(F)(F)F)C2)nn1` (stereo not drawn) [Compound 231] had an IC50 of 1000 to 10000 nM. As to `CCOc1cc2nn(C)cc2cc1C(=O)Nc1cnc(NC2CCNCC2)cn1` [Compound 373], the activation at 5 µM was greater than 75%. For `COc1cc2nc(C)cn2cc1C(=O)Nc1ccc(N2CC3CNC(C3)C2)cc1F` (stereo not drawn) [Compound 155, N-(4-(3,6-diazabicyclo[3.2.1]octan-3-yl)-2-fluorophenyl)-7-methoxy-2-methylimidazo[1,2-a]pyridine-6-carboxamide], the IC50 is less than 1000 nM. For `Cc1cn2cc(C(=O)Nc3ccc(N4CCN[C@@H](C)C4)cc3F)c(OC3CCC3)cc2n1` [Compound 705, 7-cyclobutoxy-N-2-fluoro-4-[(3S)-3-methylpiperazin-1-yl]phenyl-2-methylimidazo[1,2-a]pyridine-6-carboxamide], the concentration for half-maximal inhibition (IC50) was less than 1000 nM.

In the case of `CCOc1cc2nn(C)cc2cc1C(=O)Nc1cnc(NC[C@@H]2CCNC2)nc1` [Compound 465], the activation at 5 µM was less than 50%. As for `CCOc1cc2nc(C)cn2cc1C(=O)Nc1ccc(N2CCNC(C)C2C)nn1` (stereo not drawn) [Compound 268], the half-maximal inhibitory concentration (IC50) was in the range of 1000 to 10000 nM.
